The text below walks through data of patent publication US20030181401A1, “Insulin secretion promoter” (KYOWA HAKKO KOGYO CO., LTD., priority 2002, published 2003).

Holding throughout (assay type): in vivo
Assay [1] deals with db/db mice. Kind of assay: Test Example 5: serum insulin in glucose tolerance test after 7-day oral dosing of saccharides. Conditions: for insulin concentration during glucose loading compared with the control group (in words): continuous daily oral dosing; for Serum insulin concentration after glucose loading, 30 minutes / Serum insulin concentration after glucose loading, 120 minutes / Serum insulin concentration after glucose loading, Zero minute: oral 200 + 300 mg/kg daily, 7 days, glucose 2 g/kg oral, mean ± SD. The method, then:
(§1) Groups of male 9-week-old db/db mice (Clea Japan, Inc.) each consisting of 6 mice were fed CE-2 (Clea Japan, Inc.) for one week, so as to accustom the animals to the environment.
After acclimation, individual aqueous 10% solutions of lacto-N-neotetraose (abbreviated as “LNnT” hereinafter) and NeuAc were orally administered to the mice at 200 mg (saccharide)/kg body weight in the morning and at 300 mg (saccharide)/kg body weight in the evening. The same volume of saline was administered to the control group. The individual aqueous saccharide solutions and saline were both dosed daily to the mice for 7 days. During the dosing period, CE-2 was given together with drinking water ad libitum.
(§2) After 18-hour starvation from the final dosing on day 7, an aqueous 40% glucose solution was orally administered to 2 g (glucose)/kg body weight to the mice, to perform glucose tolerance test. Zero minute and 30 minutes after glucose loading, blood was taken from a tail vein. […] Blood was centrifuged (4° C., 10000 rpm, 10 minutes), to obtain serum.
(§3) Insulin in the serum recovered was assayed by enzyme immunoassay using Lebis Insulin kit (for rats-T) (Shibayagi, Co., Ltd.) in the same manner as in the Test Example 1.

Assay [2] deals with db/db mice. Kind of assay: Test Example 4: serum insulin in glucose tolerance test after 7-day oral dosing of saccharides. Conditions: for serum insulin concentration during glucose loading compared with the control group (in words): continuous daily oral dosing; for Serum insulin concentration after glucose loading, 30 minutes / Serum insulin concentration after glucose loading, 120 minutes / Serum insulin concentration after glucose loading, Zero minute: oral 200 + 300 mg/kg daily, 7 days, glucose 2 g/kg oral, mean ± SD. How it is done:
as §1
After acclimation, individual aqueous 10% solutions of 3′-sialyllactose (abbreviated as “3′-SL” hereinafter), 6′-sialylactose (abbreviated as “6′-SL”) and 2′-FL were orally administered to the mice at 200 mg (saccharide)/kg body weight in the morning and at 300 mg (saccharide)/kg body weight in the evening. The both volume of saline was administered to the control group. The individual aqueous saccharide solutions and saline were both dosed daily to the mice for 7 days. During the dosing period, CE-2 was given together with drinking water ad libitum.
as §2, §3

In assay [3] the test system is db/db mice. Kind of assay: Test Example 3: serum insulin on day 8 after 7-day oral dosing of saccharides. Conditions: for serum insulin concentration compared with the control group (in words): continuous daily oral dosing; for Serum insulin concentration after dosing of the individual saccharides: oral 200 + 300 mg/kg daily, 7 days, blood on day 8, no glucose loading, mean ± SD. The method, then: Group of male 9-week-old db/db mice (Clea Japan, Inc.) each consisting of 6 mice were fed CE-2 (Clea Japan, Inc.) for one week, so as to accustom the animals to the environment.
After acclimation, individual aqueous 10% solutions of globotriose (abbreviated “globo” hereinafter), N-acetyllactosamine (abbreviated as “LacNac” hereinafter) and N-acetylneuraminic acid (abbreviated as “NeuAc” hereinafter) were orally administered to the mice at 200 mg (saccharide)/kg body weight in the morning and at 300 mg (saccharide)/kg body weight in the evening.
The same volume of saline was administered to the control group. The individual aqueous saccharide solutions and saline were both dosed daily to the mice for 7 days. During the dosing period, CE-2 was given together with drinking water ad libitum.
Blood was centrifuged (4° C., 10000 rpm, 10 minutes), to obtain serum.
as §3

Assay [4] relates to ICR mice. Kind of assay: Test Example 6: serum insulin after intravenous saccharide with simultaneous oral glucose loading. The method, then:
(§4) Groups of male 9-week-old ICR mice (Japan SLC, Inc.) each consisting of 7 mice were fed CE-2 (Clea Japan, Inc.) for one week, so as to accustom the animals to the environment. Then, the mice were fasted for 18 hours.
(§5) An aqueous 10% solution of 2′-FL or NeuAc was intravenously administered to the mice to 500 mg (saccharide)/kg body weight, while an aqueous 40% glucose solution was orally administered simultaneously to 2 g (glucose)/kg body weight, to the mice. To the control group, physiological saline was administered intravenously, while glucose was orally administered simultaneously to 2 g/kg body weight. Zero minute and 30 minutes after glucose loading, blood was taken from a tail vein. […] Blood was centrifuged (4° C., 10000 rpm, 10 minutes), to obtain serum.
Insulin in the serum recovered was assayed by enzyme immunoassay using Lebis Insulin kit (for mice-T) (Shibayagi, Co., Ltd.) in the same manner as in the Test Example 2.

In assay [5] the test system is ICR mice. Kind of assay: Test Example 6: serum glucose after intravenous saccharide with simultaneous oral glucose loading. How it is done:
as §4, §5
Furthermore, the glucose concentration in the serum recovered was also assayed. The glucose concentration was assayed, using Glucose CII-TEST WAKO (WAKO Pure Chemical Industries, Ltd.). 2 μl of the recovered serum was placed in a 96-well plate, followed by addition of 200 μl of the chromogenic solution attached to the kit, for incubation at 37° C. for 10 minutes. After incubation, the absorbance at 490 nm was assayed with a plate reader. Herein, a standard curve was prepared by using aqueous 500 mg/dl glucose solution as the standard solution to dilute the standard solution appropriately for the same reaction as for the serum, and plotting the relation between the concentration and the absorbance (490 nm). Based on the prepared standard curve and the absorbance from the reaction with the serum, the glucose concentration in the serum was determined.

The mark [6] stands for this setting: ICR mice fasted 18 hours, 500 mg/kg intravenous with simultaneous glucose 2 g/kg oral, 30 minutes, mean ± SD.
Where [7] appears, read: ICR mice fasted 18 hours, 500 mg/kg intravenous with simultaneous glucose 2 g/kg oral, 120 minutes, mean ± SD.

On to `CC(=O)N[C@H]1[C@H](O[C@H]2[C@@H](O)[C@@H](CO)O[C@@H](O[C@H]3[C@H](O)[C@@H](O)C(O)O[C@@H]3CO)[C@@H]2O)O[C@H](CO)[C@@H](O[C@@H]2O[C@H](CO)[C@H](O)[C@H](O)[C@H]2O)[C@@H]1O` (mixture of isomers) [LNnT, lacto-N-neotetraose], for which, in the assay on db/db mice [1], the “insulin concentration during glucose loading compared with the control group (in words)” value was “increased”; the “Serum insulin concentration after glucose loading, 30 minutes” value (shortened to “Serum insulin concentration … 30 minutes”) turned out to be 21.7 ± 13.8 ng/mL; the “Serum insulin concentration after glucose loading, 120 minutes” value (“Serum insulin concentration … 120 minutes” below) is 25.9 ± 13.2 ng/mL; the “Serum insulin concentration after glucose loading, Zero minute” value (shortened to “Serum insulin concentration … Zero minute”) came out at 8.9 ± 2.0 ng/mL.
With `CC(=O)N[C@H]1[C@H]([C@H](O)[C@H](O)CO)O[C@@](O[C@H]2[C@@H](O)[C@@H](CO)O[C@@H](O[C@H]3[C@H](O)[C@@H](O)C(O)O[C@@H]3CO)[C@@H]2O)(C(=O)O)C[C@@H]1O` (some centres unmarked) [3′-SL, 3′-sialyllactose], in the assay on db/db mice [2], the “serum insulin concentration during glucose loading compared with the control group (in words)” value was “increased”; the “Serum insulin concentration … 30 minutes” value was found to be 5.1 ± 1.9 ng/mL; the “Serum insulin concentration … 120 minutes” value was found to be 22.0 ± 12.5 ng/mL; the “Serum insulin concentration … Zero minute” value is 6.0 ± 2.2 ng/mL.
In the case of `CC(=O)N[C@H]1[C@H]([C@H](O)[C@H](O)CO)O[C@@](OC[C@H]2O[C@@H](O[C@H]3[C@H](O)[C@@H](O)[C@H](O)O[C@@H]3CO)[C@H](O)[C@@H](O)[C@H]2O)(C(=O)O)C[C@@H]1O` [6′-SL, 6′-sialylactose], in the assay on db/db mice [2], the “serum insulin concentration during glucose loading compared with the control group (in words)” value is given as “increased”; the “Serum insulin concentration … 30 minutes” value was 6.6 ± 3.4 ng/mL; the “Serum insulin concentration … 120 minutes” value amounted to 17.9 ± 6.3 ng/mL; the “Serum insulin concentration … Zero minute” value stood at 5.9 ± 3.0 ng/mL.
Turning to `OC[C@H]1O[C@H](O[C@@H]2[C@H](O)[C@@H](O)[C@H](O[C@H]3[C@H](O)[C@@H](O)C(O)O[C@@H]3CO)O[C@@H]2CO)[C@H](O)[C@@H](O)[C@H]1O` (some centres unmarked) [Globo, globotriose], in the assay with db/db mice [3], the “serum insulin concentration compared with the control group (in words)” value is “increased” and the “Serum insulin concentration after dosing of the individual saccharides” value worked out at 23.7 ± 16.4 ng/mL.
In the same order, the values of `CC(=O)N[C@H]1C(O)O[C@H](CO)[C@@H](O[C@@H]2O[C@H](CO)[C@H](O)[C@H](O)[C@H]2O)[C@@H]1O` (some centres unmarked) [LacNac, N-acetyllactosamine] are “increased” and 26.8 ± 11.5 ng/mL.
For `CC(=O)N[C@H]1[C@H]([C@H](O)[C@H](O)CO)OC(O)(C(=O)O)C[C@@H]1O` (some centres unmarked) [NeuAc, N-acetylneuraminic acid], in the assay with db/db mice [1], the “insulin concentration during glucose loading compared with the control group (in words)” value was “increased”; the “Serum insulin concentration … 30 minutes” value came out at 18.5 ± 8.5 ng/mL; the “Serum insulin concentration … 120 minutes” value turned out to be 30.3 ± 10.7 ng/mL; the “Serum insulin concentration … Zero minute” value stood at 8.9 ± 7.7 ng/mL. Besides, the “Serum insulin concentration … 30 minutes” value with ICR mice [4] (setting [6]) was determined as 178.3 ± 105.5 pg/mL. Besides, the “Serum insulin concentration … 120 minutes” value with ICR mice [4] (setting [7]) was found to be 384.4 ± 394.1 pg/mL. Besides, the “serum insulin concentration after glucose loading compared with the control group (in words)” value in the assay on ICR mice [4] (ICR mice, intravenous dosing) was “increased”. Moreover, in the assay with ICR mice [5] (setting [6]), the “Serum glucose concentration after glucose loading, 30 minutes” value was found to be 300.9 ± 101.6 mg/dL. Moreover, the “Serum glucose concentration after glucose loading, 120 minutes” value in the assay on ICR mice [5] (setting [7]) turned out to be 197.6 ± 28.8 mg/dL. For the same compound, the “Serum glucose concentration after glucose loading, Zero minute” value in the assay with ICR mice [5] (ICR mice fasted 18 hours, 500 mg/kg intravenous with simultaneous glucose 2 g/kg oral, zero minute, mean ± SD) worked out at 102.6 ± 12.1 mg/dL. Further, the “increase of the serum glucose concentration compared with the control group (in words)” value in the assay on ICR mice [5] (ICR mice, intravenous dosing) was “suppressed”. In the assay with db/db mice [3], the “serum insulin concentration compared with the control group (in words)” value is “increased” and the “Serum insulin concentration after dosing of the individual saccharides” value turned out to be 68.4 ± 45.9 ng/mL.
